US20110053916A1 (Vertex Pharmaceuticals Incorporated, priority 2009, published 2011)
Counter-ions that a name gives are not always drawn. Like-named read-outs stand apart in the source and are kept apart here.

Legend:
[1] = tested on: Mycobacterium tuberculosis H37Ra; assay: Mycobacterium tuberculosis growth inhibition assay (microtiter dilution, resazurin reduction); assay type: cell-based; settings: 7H9 broth, 9 days + 24 h resazurin, lowest concentration inhibiting resazurin reduction by >70%, several symbols in a cell = repeat determinations
Summary of the method: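 M. tuberculosis H37Ra at ~1×10^6 cells/mL in 7H9 broth plus 10% ADC, exposed to 2-fold serial dilutions (7 or 11 steps) at 37 °C for 9 days. Resazurin then added, fluorescence (492/595 nm) read at baseline and after 24 h; MIC = lowest concentration inhibiting resazurin reduction >70% versus DMSO.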

PknB = target: T1, PknB (Mycobacterium tuberculosis, UniProt P9WI81); assay: biochemical; design: species or system M. tuberculosis; settings: for Ki: read-out: Ki Values
T1 construct: made in house
T1 sequence (P9WI81 whole entry): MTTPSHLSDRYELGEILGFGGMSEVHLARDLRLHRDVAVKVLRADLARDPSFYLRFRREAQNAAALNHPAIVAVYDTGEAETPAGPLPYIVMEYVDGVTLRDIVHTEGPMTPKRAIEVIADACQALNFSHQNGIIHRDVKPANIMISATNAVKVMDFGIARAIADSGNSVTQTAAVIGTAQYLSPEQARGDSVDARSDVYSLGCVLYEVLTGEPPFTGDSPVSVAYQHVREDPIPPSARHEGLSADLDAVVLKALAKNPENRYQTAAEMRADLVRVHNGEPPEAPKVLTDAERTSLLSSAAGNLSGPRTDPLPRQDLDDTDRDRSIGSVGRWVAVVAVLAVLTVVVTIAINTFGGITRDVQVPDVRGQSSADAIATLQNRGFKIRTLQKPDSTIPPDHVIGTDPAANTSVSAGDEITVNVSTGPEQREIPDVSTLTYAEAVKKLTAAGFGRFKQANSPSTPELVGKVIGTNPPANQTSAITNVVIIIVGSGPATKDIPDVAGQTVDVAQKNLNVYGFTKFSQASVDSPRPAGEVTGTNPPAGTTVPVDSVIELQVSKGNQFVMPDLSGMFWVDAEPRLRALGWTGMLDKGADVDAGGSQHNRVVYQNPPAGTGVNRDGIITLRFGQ

[2] = 3 nM PknB, 6 uM GarA, 3 μM ATP, 30 min, competitive tight-binding fit, several symbols in a cell = repeat determinations

CNS(=O)(=O)c1ccc(-c2ncc(Cl)c(Nc3cc(C4CC4)[nH]n3)n2)s1 [Compound 37, 5-[5-chloro-4-[(5-cyclopropyl-1H-pyrazol-3-yl)amino]-pyrimidin-2-yl]-N-methyl-thiophene-2-sulfonamide]
MIC values [1]: B+ | Ki (PknB; [2]): 1 to 10 nM

NS(=O)(=O)c1cccc(-c2ncc(O)c(Nc3cc(C4CC4)n[nH]3)n2)c1 [Compound 99, 3-(4-(3-cyclopropyl-1H-pyrazol-5-ylamino)-5-hydroxypyrimidin-2-yl)benzenesulfonamide]
MIC values [1]: B+, B | Ki (PknB; [2]): 10 to 50 nM

CC(C)(C)OC(=O)/N=C(\N)c1ccc(-c2ncc(Cl)c(Nc3cc(C4CC4)[nH]n3)n2)s1 [Compound 197, tert-butyl [[amino-[5-[5-chloro-4-[(5-cyclopropyl-1H-pyrazol-3-yl)amino]-pyrimidin-2-yl]-2-thienyl]-methylene]amino]formate]
MIC values [1]: B+ | Ki (PknB; [2]): 500 to 1000 nM

O=S(=O)(NC1CCOCC1)c1ccc(-c2ncc(Cl)c(Nc3cc(C4CC4)[nH]n3)n2)s1 [Compound 148, 5-[5-chloro-4-[(5-cyclopropyl-1H-pyrazol-3-yl)amino]-pyrimidin-2-yl]-N-tetrahydropyran-4-yl-thiophene-2-sulfonamide]
MIC values [1]: B, C | Ki Values (PknB; [2]): A, B**

CC(=O)c1ccc(-c2nccc(Nc3cc(C4CC4)[nH]n3)n2)cc1 [Compound 308, 1-[4-[4-[(5-cyclopropyl-1H-pyrazol-3-yl)amino]pyrimidin-2-yl]phenyl]ethanone]
MIC values [1]: B+ | Ki (PknB; [2]): 10 to 50 nM

N#CCc1ccc(Nc2nccc(Nc3cc(C4CC4)[nH]n3)n2)cc1 [Compound 1, 2-(4-(4-(5-cyclopropyl-1H-pyrazol-3-ylamino)pyrimidin-2-ylamino)phenyl)acetonitrile]
MIC values [1]: BM, B | Ki (PknB; [2]): 10 to 50 nM

CNS(=O)(=O)c1ccc(-c2ncc(Cl)c(Nc3cc(C4CC4)n[nH]3)n2)cc1 [Compound 117, 4-[5-chloro-4-[(5-cyclopropyl-2H-pyrazol-3-yl)amino]-pyrimidin-2-yl]-N-methyl-benzenesulfonamide]
MIC values [1]: A, C, C | Ki Values (PknB; [2]): A*, A

CCOC(=O)C(O)c1ccc(-c2ncc(Cl)c(Nc3cc(C4CC4)[nH]n3)n2)s1 (stereo not drawn) [Compound 191, Ethyl 2-(5-(5-chloro-4-(5-cyclopropyl-1H-pyrazol-3-ylamino)pyrimidin-2-yl)thiophen-2-yl)-2-hydroxyacetate]
MIC values [1]: B, C | Ki Values (PknB; [2]): A*, B**

C#Cc1cnc(N2CC[C@@H](NC(=O)OC(C)(C)C)C2)nc1Nc1cc(C2CC2)n[nH]1 [Compound 173, tert-butyl [[1-[4-[(5-cyclopropyl-2H-pyrazol-3-yl)amino]-5-ethynyl-pyrimidin-2-yl]pyrrolidin-3-yl]amino]formate]
MIC values [1]: B+ | Ki Values (PknB; [2]): B, C

CC(C)(C)OC(=O)NCCNS(=O)(=O)c1ccc(-c2ncc(Cl)c(Nc3cc(C4CC4)[nH]n3)n2)s1 [Compound 78, tert-Butyl 2-(5-(5-chloro-4-(5-cyclopropyl-1H-pyrazol-3-ylamino)pyrimidin-2-yl)thiophene-2-sulfonamido)ethylcarbamate]
MIC values [1]: A, B++, C, C | Ki (PknB; [2]): 100 to 500 nM

CN(C)S(=O)(=O)c1ccc(Nc2nccc(Nc3cc(C4CC4)n[nH]3)n2)cc1 [Compound 103, 4-(4-(3-cyclopropyl-1H-pyrazol-5-ylamino)pyrimidin-2-ylamino)N,N-dimethylbenzenesulfonamide]
MIC values [1]: B++, B+ | Ki Values (PknB; [2]): A**, A*

NC(=O)c1cc(-c2nccc(Nc3cc(C4CC4)[nH]n3)n2)ccc1Cl [Compound 51, 2-chloro-5-[4-[(5-cyclopropyl-1H-pyrazol-3-yl)amino]pyrimidin-2-yl]-benzamide]
MIC values [1]: B++ | Ki (PknB; [2]): 50 to 100 nM

C#Cc1cnc(-c2ccc(C(C)C#N)s2)nc1Nc1cc(C2CC2)[nH]n1 (stereo not drawn) [Compound 227, 2-[5-[4-[(5-cyclopropyl-1H-pyrazol-3-yl)amino]-5-ethynyl-pyrimidin-2-yl]-2-thienyl]propanenitrile]
MIC values [1]: B++ | Ki (PknB; [2]): 1 to 10 nM

C#Cc1cnc(-c2ccccc2)nc1Nc1cc(C2CC2)[nH]n1 [Compound 14, N-(5-cyclopropyl-1H-pyrazol-3-yl)-5-ethynyl-2-phenylpyrimidin-4-amine]
MIC values [1]: B+, B | Ki Values (PknB; [2]): A*, A

NCc1ccc(-c2ncc(Cl)c(Nc3cc(C4CC4)n[nH]3)n2)s1 [Compound 141, 2-(5-(aminomethyl)thiophen-2-yl)-5-chloro-N-(3-cyclopropyl-1H-pyrazol-5-yl)pyrimidin-4-amine hydrochloride]
MIC values [1]: B, C, C | Ki Values (PknB): A, A, B**

C#Cc1cnc(Nc2ccc3[nH]ncc3c2)nc1Nc1cc(C2CC2)[nH]n1 [Compound 91, N^4-(5-cyclopropyl-1H-pyrazol-3-yl)-5-ethynyl-N^2-(1H-indazol-5-yl)pyrimidine-2,4-diamine]
MIC values [1]: B+ | Ki (PknB; [2]): 10 to 50 nM

NS(=O)(=O)c1ccc(-c2ncc(NC=O)c(Nc3cc(C4CC4)[nH]n3)n2)s1 [Compound 252, N-[4-[(5-cyclopropyl-1H-pyrazol-3-yl)amino]-2-(5-sulfamoyl-2-thienyl)-pyrimidin-5-yl]formamide]
MIC values [1]: B+ | Ki (PknB; [2]): 10 to 50 nM

O=[N+]([O-])c1csc(-c2ncc(Cl)c(Nc3cc(C4CC4)[nH]n3)n2)c1 [Compound 204, 5-chloro-N-(5-cyclopropyl-1H-pyrazol-3-yl)-2-(4-nitrothiophen-2-yl)pyrimidin-4-amine]
MIC values [1]: B+ | Ki (PknB; [2]): 10 to 50 nM

O=S(=O)(NC1CC1)c1ccc(-c2ncc(Cl)c(Nc3cc(C4CC4)[nH]n3)n2)s1 [Compound 139, 5-[5-chloro-4-[(5-cyclopropyl-1H-pyrazol-3-yl)amino]-pyrimidin-2-yl]-N-cyclopropyl-thiophene-2-sulfonamide]
MIC values [1]: B+, C | Ki (PknB; [2]): 10 to 50 nM

N#CCc1ccc(-c2ncc(Cl)c(Nc3cc(C4CC4)[nH]n3)n2)cc1 [Compound 18, 2-(4-(5-chloro-4-(5-cyclopropyl-1H-pyrazol-3-ylamino)pyrimidin-2-yl)phenyl)acetonitrile]
MIC values [1]: B, B, C | Ki Values (PknB; [2]): A**, A*

C#Cc1cnc(-c2ccc([C@@H](O)CC)s2)nc1Nc1cc(C2CC2)[nH]n1 (stereo in doubt) [Compound 199, 1-[5-[4-[(5-cyclopropyl-1H-pyrazol-3-yl)amino]-5-ethynyl-pyrimidin-2-yl]-2-thienyl]propan-1-ol]
MIC values [1]: B+ | Ki Values (PknB; [2]): A**, A*

O=S(=O)(c1ccc(-c2ncc(Cl)c(Nc3cc(C4CC4)[nH]n3)n2)s1)N1CCOCC1 [Compound 106, 5-chloro-N-(5-cyclopropyl-1H-pyrazol-3-yl)-2-(5-morpholinosulfonyl-2-thienyl)-pyrimidin-4-amine]
MIC values [1]: B++, C | Ki Values (PknB; [2]): A*, A

C#Cc1cnc(-c2ccc(C(O)CCCO)s2)nc1Nc1cc(C2CC2)[nH]n1 (stereo not drawn) [Compound 223, 1-[5-[4-[(5-cyclopropyl-1H-pyrazol-3-yl)amino]-5-ethynyl-pyrimidin-2-yl]-2-thienyl]butane-1,4-diol]
MIC values [1]: B++ | Ki (PknB; [2]): 1 to 10 nM

C#Cc1cnc(-c2ccc(C)c(C(N)=O)c2)nc1Nc1cc(C2CC2)[nH]n1 [Compound 93, 5-(4-(5-Cyclopropyl-1H-pyrazol-3-ylamino)-5-ethynylpyrimidin-2-yl)-2-methyl benzamide]
MIC values [1]: B, C | Ki (PknB; [2]): 10 to 50 nM
